Source: PubChem BioAssay AID2060489 (Molecular Pharmacology Branch, DTP, NCI, 2025)

System: 922993-354-T-J3-PDC complex spheroids, viability
Assay: Anticancer human tumor 922993-354-T-J3-PDC patient-derived endometrial carcinoma cell line growth inhibition [GQUAD]
Conditions: for IC50: curve of first compound; for viability, T/C: stronger effect = lower value
In short: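 Viability of tumor cells grown as complex spheroids with endothelial and stromal cells, exposed to drug combinations. Top concentration at or near clinical Cmax (else 10 microM), diluted in half-log increments.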

[1] = second compound 0.0316 µM, first compound 0.0316 µM
[2] = second compound 0.0316 µM, first compound 0.1 µM
[3] = second compound 0.0316 µM, first compound 0.316 µM
[4] = second compound 0.0316 µM, first compound 1 µM
[5] = second compound 0.0316 µM, first compound 3.16 µM
[6] = second compound 0.0316 µM, first compound 10 µM
[7] = second compound 0.1 µM, first compound 0.0316 µM
[8] = second compound 0.1 µM, first compound 0.1 µM
[9] = second compound 0.1 µM, first compound 0.316 µM
[10] = second compound 0.1 µM, first compound 1 µM
[11] = second compound 0.1 µM, first compound 3.16 µM
[12] = second compound 0.1 µM, first compound 10 µM
[13] = second compound 0.316 µM, first compound 0.0316 µM
[14] = second compound 0.316 µM, first compound 0.1 µM
[15] = second compound 0.316 µM, first compound 0.316 µM
[16] = second compound 0.316 µM, first compound 1 µM
[17] = second compound 0.316 µM, first compound 3.16 µM
[18] = second compound 0.316 µM, first compound 10 µM
[19] = second compound 1 µM, first compound 0.0316 µM
[20] = second compound 1 µM, first compound 0.1 µM
[21] = second compound 1 µM, first compound 0.316 µM
[22] = second compound 1 µM, first compound 1 µM
[23] = second compound 1 µM, first compound 3.16 µM
[24] = second compound 1 µM, first compound 10 µM
[25] = second compound 3.16 µM, first compound 0.0316 µM
[26] = second compound 3.16 µM, first compound 0.1 µM
[27] = second compound 3.16 µM, first compound 0.316 µM
[28] = second compound 3.16 µM, first compound 1 µM
[29] = second compound 3.16 µM, first compound 3.16 µM
[30] = second compound 3.16 µM, first compound 10 µM
[31] = second compound 10 µM, first compound 0.0316 µM
[32] = second compound 10 µM, first compound 0.1 µM
[33] = second compound 10 µM, first compound 0.316 µM
[34] = second compound 10 µM, first compound 1 µM
[35] = second compound 10 µM, first compound 3.16 µM
[36] = second compound 10 µM, first compound 10 µM
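Note: spheroids exposed to compounds for seven days.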
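Throughout, for viability, T/C: 100% = DMSO vehicle control viability.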

Work on CC1COCCN1c1cc(C2(O)CC3CCC(C2)O3)c2cnn(-c3ccn[nH]3)c2n1 (stereo not drawn) + Cc1cnc(CNC(=O)c2c(=O)c3ccc(N4CCCN(C)CC4)nc3n3c2sc2ccccc23)cn1 yielded an IC50 (second compound 0.0316 µM) of 214 nM, an IC50 (second compound 0.1 µM) of 86.1 nM and an IC50 (second compound 0.316 µM) of under 31.6 nM. It also gave an IC50 (second compound 1 µM) of under 31.6 nM, an IC50 (second compound 3.16 µM) of under 31.6 nM and an IC50 (second compound 10 µM) of under 31.6 nM. The viability, T/C [1] was 79.9%, the viability, T/C [2] was 64.3% and the viability, T/C [3] was 40.1%. For the same compound, the viability, T/C [4] was 32.2%, the viability, T/C [5] was 28.6% and the viability, T/C [6] was 18.2%. It also gave a viability, T/C [7] of 68.8%, a viability, T/C [8] of 43.1% and a viability, T/C [9] of 40.9%. It also gave a viability, T/C [10] of 21%, a viability, T/C [11] of 26.6% and a viability, T/C [12] of 16.5%. The viability, T/C [13] was 47.4%, the viability, T/C [14] was 46.2% and the viability, T/C [15] was 37.1%. The viability, T/C [16] was 23.1%, the viability, T/C [17] was 22.1% and the viability, T/C [18] was 12.5%. For the same compound, the viability, T/C [19] was 46.2%, the viability, T/C [20] was 43.1% and the viability, T/C [21] was 50.8%. The viability, T/C [22] was 34.2%, the viability, T/C [23] was 23.3% and the viability, T/C [24] was 4.13%. It also gave a viability, T/C [25] of 44.8%, a viability, T/C [26] of 44.2% and a viability, T/C [27] of 45.2%. It also gave a viability, T/C [28] of 29.4%, a viability, T/C [29] of 3.29% and a viability, T/C [30] of 0.13%. For the same compound, the viability, T/C [31] was 45.5%, the viability, T/C [32] was 37.9% and the viability, T/C [33] was 31.4%. It also gave a viability, T/C [34] of 14.6%, a viability, T/C [35] of 0.21% and a viability, T/C [36] of 0.2%.

For CC1COCCN1c1cc(C2(S(C)(=N)=O)CC2)nc(-c2ccnc3[nH]ccc23)n1 (stereo not drawn) + Cc1cnc(CNC(=O)c2c(=O)c3ccc(N4CCCN(C)CC4)nc3n3c2sc2ccccc23)cn1, the IC50 (second compound 0.0316 µM) was 7860 nM, the IC50 (second compound 0.1 µM) was 5470 nM and the IC50 (second compound 0.316 µM) was 172 nM. For the same compound, the IC50 (second compound 1 µM) was over 10000 nM, the IC50 (second compound 3.16 µM) was over 10000 nM and the IC50 (second compound 10 µM) was under 31.6 nM. It also gave a viability, T/C [1] of 87.9%, a viability, T/C [2] of 79.4% and a viability, T/C [3] of 82.8%. It also gave a viability, T/C [4] of 67.9%, a viability, T/C [5] of 91.5% and a viability, T/C [6] of 41.6%. The viability, T/C [7] was 70.4%, the viability, T/C [8] was 63.5% and the viability, T/C [9] was 55.2%. It also gave a viability, T/C [10] of 61%, a viability, T/C [11] of 66% and a viability, T/C [12] of 35.5%. For the same compound, the viability, T/C [13] was 59.9%, the viability, T/C [14] was 50.7% and the viability, T/C [15] was 50.9%. For the same compound, the viability, T/C [16] was 38.8%, the viability, T/C [17] was 50.5% and the viability, T/C [18] was 39.2%. For the same compound, the viability, T/C [19] was 46.3%, the viability, T/C [20] was 60.1% and the viability, T/C [21] was 51.7%. For the same compound, the viability, T/C [22] was 45.2%, the viability, T/C [23] was 48.5% and the viability, T/C [24] was 53.3%. It also gave a viability, T/C [25] of 49.1%, a viability, T/C [26] of 52.8% and a viability, T/C [27] of 54.4%. For the same compound, the viability, T/C [28] was 48%, the viability, T/C [29] was 54.4% and the viability, T/C [30] was 52.5%. The viability, T/C [31] was 51.8%, the viability, T/C [32] was 42.9% and the viability, T/C [33] was 54%. The viability, T/C [34] was 50.6%, the viability, T/C [35] was 47.3% and the viability, T/C [36] was 53.6%.

With COc1ccc([C@@H](O)c2cc(-c3ncnc4cc(N5CCOCC5)ccc34)c(F)cc2Cl)nn1 + Cc1cnc(CNC(=O)c2c(=O)c3ccc(N4CCCN(C)CC4)nc3n3c2sc2ccccc23)cn1 the IC50 (second compound 0.0316 µM) was 2860 nM, the IC50 (second compound 0.1 µM) was 1020 nM and the IC50 (second compound 0.316 µM) was 456 nM. For the same compound, the IC50 (second compound 1 µM) was 3990 nM, the IC50 (second compound 3.16 µM) was 1830 nM and the IC50 (second compound 10 µM) was under 31.6 nM. It also gave a viability, T/C [1] of 84.2%, a viability, T/C [2] of 60.5% and a viability, T/C [3] of 88.1%. The viability, T/C [4] was 66.6%, the viability, T/C [5] was 49.9% and the viability, T/C [6] was 42.9%. It also gave a viability, T/C [7] of 79.9%, a viability, T/C [8] of 61.7% and a viability, T/C [9] of 67.7%. It also gave a viability, T/C [10] of 44.3%, a viability, T/C [11] of 44.1% and a viability, T/C [12] of 35.6%. The viability, T/C [13] was 66.7%, the viability, T/C [14] was 54.3% and the viability, T/C [15] was 48.1%. It also gave a viability, T/C [16] of 52.6%, a viability, T/C [17] of 45.5% and a viability, T/C [18] of 38.1%. For the same compound, the viability, T/C [19] was 57.1%, the viability, T/C [20] was 49.5% and the viability, T/C [21] was 56.7%. It also gave a viability, T/C [22] of 57.7%, a viability, T/C [23] of 58.6% and a viability, T/C [24] of 27.1%. For the same compound, the viability, T/C [25] was 51.8%, the viability, T/C [26] was 51% and the viability, T/C [27] was 55.7%. The viability, T/C [28] was 52.3%, the viability, T/C [29] was 47.8% and the viability, T/C [30] was 14.6%. For the same compound, the viability, T/C [31] was 45%, the viability, T/C [32] was 50.7% and the viability, T/C [33] was 46.8%. For the same compound, the viability, T/C [34] was 38.6%, the viability, T/C [35] was 30.3% and the viability, T/C [36] was 4.3%.

Work on O=C(c1cc(Cc2n[nH]c(=O)c3ccccc23)ccc1F)N1CCN(C(=O)C2CC2)CC1 + Cc1cnc(CNC(=O)c2c(=O)c3ccc(N4CCCN(C)CC4)nc3n3c2sc2ccccc23)cn1 yielded an IC50 (second compound 0.0316 µM) of over 10000 nM, an IC50 (second compound 0.1 µM) of over 10000 nM and an IC50 (second compound 0.316 µM) of under 31.6 nM. For the same compound, the IC50 (second compound 1 µM) was under 31.6 nM, the IC50 (second compound 3.16 µM) was under 31.6 nM and the IC50 (second compound 10 µM) was 3770 nM. The viability, T/C [1] was 79.7%, the viability, T/C [2] was 78% and the viability, T/C [3] was 90.8%. It also gave a viability, T/C [4] of 92.5%, a viability, T/C [5] of 61.2% and a viability, T/C [6] of 75%. It also gave a viability, T/C [7] of 74.1%, a viability, T/C [8] of 68.3% and a viability, T/C [9] of 64.1%. For the same compound, the viability, T/C [10] was 49.1%, the viability, T/C [11] was 54.4% and the viability, T/C [12] was 76%. The viability, T/C [13] was 57.4%, the viability, T/C [14] was 46.1% and the viability, T/C [15] was 39.4%. It also gave a viability, T/C [16] of 42%, a viability, T/C [17] of 50.4% and a viability, T/C [18] of 55.3%. The viability, T/C [19] was 50.2%, the viability, T/C [20] was 51.7% and the viability, T/C [21] was 37.2%. It also gave a viability, T/C [22] of 43.5%, a viability, T/C [23] of 48.5% and a viability, T/C [24] of 41.1%. It also gave a viability, T/C [25] of 43.7%, a viability, T/C [26] of 53.4% and a viability, T/C [27] of 53.4%. For the same compound, the viability, T/C [28] was 57.7%, the viability, T/C [29] was 51.3% and the viability, T/C [30] was 49.8%. The viability, T/C [31] was 42.8%, the viability, T/C [32] was 53.4% and the viability, T/C [33] was 60.1%. The viability, T/C [34] was 52.8%, the viability, T/C [35] was 52% and the viability, T/C [36] was 39.2%.
